This note sets out measurements from patent US4393228A, “Epoxysuccinic acid derivatives” (Taisho Pharmaceutical Co., Ltd., priority 1977, dated 1983).

The structures appear in SMILES notation.

In this test the target is T1, papain (Carica papaya, UniProt P00784).
T1 construct: purchased Sigma Chem. Co
T1 sequence (P00784 134-345): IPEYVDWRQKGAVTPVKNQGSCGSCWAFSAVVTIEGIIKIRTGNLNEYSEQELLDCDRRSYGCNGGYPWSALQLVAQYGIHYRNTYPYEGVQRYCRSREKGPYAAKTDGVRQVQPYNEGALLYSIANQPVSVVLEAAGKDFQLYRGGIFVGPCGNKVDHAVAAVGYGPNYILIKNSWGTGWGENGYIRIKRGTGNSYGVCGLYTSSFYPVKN
The test can be described thus: Papain inhibitory activity (milk casein digestion). Type of test: biochemical. As to conditions: papain 80 μg/ml 0.5 ml, cysteine, pH 6.8, 1% milk casein, 40° C., 10 minutes. The method, then:
Papain inhibitory activity of the compounds of this invention was assayed as follows: To 0.5 ml of a solution of papain (80 μg/ml, Sigma Chem. Co., 2x cry.), were added 0.25 ml of 40 mM cysteine dissolved in 20 mM disodium ethylenediamine tetraacetic acid solution adjusted pH to 6.8 with sodium hydroxide and 0.25 ml of 33 mM phosphate buffer (pH 6.8) with or without inhibitor. After incubation at 40° C. for 15 minutes, the resulting mixture was added to 5 ml of 1% milk casein solution in the same buffer as described above, and further incubated at 40° C. for 10 minutes. Then the mixture was mixed with 5 ml of 0.44 M trichloroacetic acid solution and followed by filtration with a sheet of Toyo filter paper No. 4. The extinction of the filtrate was read at 280 nm. The percent inhibition was calculated from the formula, 100 x (B-A)/B; wherein B stands for the absorbance without inhibitor and A for the absorbance with inhibitor. The compound Nos. in Table 1 are as defined in Examples as described hereinafter.
`O=C(O)[C@H]1O[C@@H]1C(=O)OCc1ccccc1I` (relative stereo) [EP-106, o-iodobenzyl potassium epoxysuccinate]: the “ID50 (amount of inhibitor for 50% inhibition)” value is on record as 0.14 γ.
Turning to `O=C(OCc1ccccc1Cl)[C@@H]1O[C@H]1C(=O)OCc1ccccc1Cl` (relative stereo) [EP-107, di-o-chlorobenzyl epoxysuccinate], the “ID50 (amount of inhibitor for 50% inhibition)” value is 0.15 γ.
On to `O=C(O)[C@H]1O[C@@H]1C(=O)OCc1ccccc1Cl` (relative stereo) [EP-108, o-chlorobenzyl potassium epoxysuccinate], for which the “ID50 (amount of inhibitor for 50% inhibition)” value is 0.09 γ.
For the compound `O=C(OCc1cccc(Cl)c1)[C@@H]1O[C@H]1C(=O)OCc1cccc(Cl)c1` (relative stereo) [EP-109, di-m-chlorobenzyl epoxysuccinate], the “ID50 (amount of inhibitor for 50% inhibition)” value is 0.50 γ.
Regarding `O=C(O)[C@H]1O[C@@H]1C(=O)OCc1cccc(Cl)c1` (relative stereo) [EP-110, m-chlorobenzyl potassium epoxysuccinate], the “ID50 (amount of inhibitor for 50% inhibition)” value is 0.24 γ.
Under `O=C(OCc1ccc(I)cc1)[C@@H]1O[C@H]1C(=O)OCc1ccc(I)cc1` (relative stereo) [EP-111, di-p-iodobenzyl epoxysuccinate] stands 2.91 γ; under `O=C(O)[C@H]1O[C@@H]1C(=O)OCc1ccc(I)cc1` (relative stereo) [EP-112, p-iodobenzyl potassium epoxysuccinate], 0.32 γ; under `O=C(OCc1ccc(Br)cc1)[C@@H]1O[C@H]1C(=O)OCc1ccc(Br)cc1` (relative stereo) [EP-113, di-p-bromobenzyl epoxysuccinate], 0.99 γ.
Consider `O=C(O)[C@H]1O[C@@H]1C(=O)OCc1ccc(Br)cc1` (relative stereo) [EP-114, p-bromobenzyl potassium epoxysuccinate], for which the “ID50 (amount of inhibitor for 50% inhibition)” value is listed as 0.26 γ.
In the case of `O=C(OCc1ccc(Cl)cc1)[C@@H]1O[C@H]1C(=O)OCc1ccc(Cl)cc1` (relative stereo) [EP-115, di-p-chlorobenzyl epoxysuccinate], the “ID50 (amount of inhibitor for 50% inhibition)” value was 1.20 γ.
Take `O=C(OCc1ccc(Cl)cc1Cl)[C@H]1O[C@@H]1C(=O)OCc1ccc(Cl)cc1Cl` (relative stereo) [EP-117, di-2',4'-dichlorobenzyl epoxysuccinate]: the “ID50 (amount of inhibitor for 50% inhibition)” value is 2.55 γ.
As for `O=C(O)[C@H]1O[C@@H]1C(=O)OCc1ccc(Cl)cc1Cl` (relative stereo) [EP-118, 2',4'-dichlorobenzyl potassium epoxysuccinate], the “ID50 (amount of inhibitor for 50% inhibition)” value is 0.11 γ.
On to `O=C(OCc1ccc(I)cc1Br)[C@H]1O[C@@H]1C(=O)OCc1ccc(I)cc1Br` (relative stereo) [EP-119, di-2'-bromo-4'-iodobenzyl epoxysuccinate], for which the “ID50 (amount of inhibitor for 50% inhibition)” value was 3.00 γ.
Under `O=C(O)[C@H]1O[C@@H]1C(=O)OCc1ccc(I)cc1Br` (relative stereo) [EP-120, 2'-bromo-4'-iodobenzyl potassium epoxysuccinate] stands 0.40 γ; under `O=C(O)[C@H]1O[C@@H]1C(=O)OCc1cccc(F)c1` (relative stereo) [EP-122, m-fluorobenzyl potassium epoxysuccinate], 0.10 γ.
With `O=C(OCc1ccccc1F)[C@H]1O[C@@H]1C(=O)OCc1ccccc1F` (relative stereo) [EP-123, di-o-fluorobenzyl epoxysuccinate], the “ID50 (amount of inhibitor for 50% inhibition)” value was 0.30 γ.
As to `O=C(O)[C@H]1O[C@@H]1C(=O)OCc1ccccc1F` (relative stereo) [EP-124, o-fluorobenzyl potassium epoxysuccinate], the “ID50 (amount of inhibitor for 50% inhibition)” value was 0.10 γ.
Turning to `O=C(OCc1ccc(Br)c(Cl)c1)[C@H]1O[C@@H]1C(=O)OCc1ccc(Br)c(Cl)c1` (relative stereo) [EP-125, di-3'-chloro-4'-bromobenzyl epoxysuccinate], the “ID50 (amount of inhibitor for 50% inhibition)” value is given as 2.90 γ.
Consider `O=C(O)[C@H]1O[C@@H]1C(=O)OCc1ccc(Br)c(Cl)c1` (relative stereo) [EP-126, 3'-chloro-4'-bromobenzyl potassium epoxysuccinate], for which the “ID50 (amount of inhibitor for 50% inhibition)” value is given as 0.12 γ.
To `O=C(OCc1cc(Cl)ccc1Cl)[C@H]1O[C@@H]1C(=O)OCc1cc(Cl)ccc1Cl` (relative stereo) [EP-127, di-2',5'-dichlorobenzyl epoxysuccinate] belongs 2.00 γ.
Consider `O=C(O)[C@H]1O[C@@H]1C(=O)OCc1cc(Cl)ccc1Cl` (relative stereo) [EP-128, 2',5'-dichlorobenzyl potassium epoxysuccinate], for which the “ID50 (amount of inhibitor for 50% inhibition)” value is 0.11 γ.
Under `O=C(OCCc1ccccc1)[C@H]1O[C@@H]1C(=O)OCCc1ccccc1` (relative stereo) [EP-129, di-2'-phenylethyl epoxysuccinate] stands 0.78 γ.
For the compound `O=C(O)[C@H]1O[C@@H]1C(=O)OCCc1ccccc1` (relative stereo) [EP-130, 2'-phenylethyl potassium epoxysuccinate], the “ID50 (amount of inhibitor for 50% inhibition)” value is 0.10 γ.
To `O=C(O)[C@H]1O[C@@H]1C(=O)OCCCc1ccccc1` (relative stereo) [EP-132, 3'-phenylpropyl potassium epoxysuccinate] belongs 0.17 γ; to `O=C(OCC=Cc1ccccc1)[C@H]1O[C@@H]1C(=O)OCC=Cc1ccccc1` (relative stereo) [EP-133, di-3'-phenyl-2'-propenyl epoxysuccinate], 2.81 γ.
On to `O=C(O)[C@H]1O[C@@H]1C(=O)OCC=Cc1ccccc1` (relative stereo) [EP-134, 3'-phenyl-2'-propenyl potassium epoxysuccinate], for which the “ID50 (amount of inhibitor for 50% inhibition)” value is 0.71 γ.
Take `COC(=O)[C@H]1O[C@@H]1C(=O)O` (relative stereo) [EP-135, methyl hydrogen epoxysuccinate]: the “ID50 (amount of inhibitor for 50% inhibition)” value is 12.20 γ.
Regarding `O=C(O)[C@H]1O[C@@H]1C(=O)Oc1ccccc1` (relative stereo) [EP-136, phenyl hydrogen epoxysuccinate], the “ID50 (amount of inhibitor for 50% inhibition)” value is 2.72 γ.
As for `CCCOC(=O)[C@H]1O[C@@H]1C(=O)O` (relative stereo) [EP-138, n-propyl potassium epoxysuccinate], the “ID50 (amount of inhibitor for 50% inhibition)” value was 0.82 γ.
Under `CC(C)OC(=O)[C@H]1O[C@@H]1C(=O)O` (relative stereo) [EP-139, i-propyl potassium epoxysuccinate] stands 0.78 γ; under `C=CCOC(=O)[C@H]1O[C@@H]1C(=O)O` (relative stereo) [EP-140, allyl potassium epoxysuccinate], 0.92 γ.
Under `C#CCOC(=O)[C@H]1O[C@@H]1C(=O)O` (relative stereo) [EP-141, propargyl potassium epoxysuccinate] stands 1.45 γ; under `CCCCOC(=O)[C@H]1O[C@@H]1C(=O)O` (relative stereo) [EP-142, n-butyl potassium epoxysuccinate], 0.29 γ.
